# Starred links: 1 amine or outer side, 2 acyl side, 3 side chain; linkers in the order of their positions; H or OH if unused. Positions of bridges follow the written chain, without caps; N, C: chain ends. Non-standard residues stand in square brackets, D forms with d. Residues, ends and D or L forms follow the SMILES beside them. Chains are numbered I, II in the order given. Actinocin(9to1) = Cc1c2oc3c(C)ccc(C(=O)[*:1])c3nc-2c(C(=O)[*:2])c(N)c1=O; NMeV = CN[C@H](C(=O)O)C(C)C; Sar = CNCC(=O)O
# Columns and labels:
# [1] = test system: EWS-FLI1; assay: AlphaScreen proximity assay, binding of recombinant EWS-FLI1 to cognate DNA oligo
# [2] = test system: EWS-FLI1-induced genes; assay: Gene expression profiling with GSEA in A673 cells; type: cell-based; settings: 5 nM, 24 hours
# Experimental: Ewing sarcoma A673 cells at 65% confluence were treated in duplicate with DMSO (0.2%) or 5 nM actinomycin D for 24 hours. RNA was extracted with an Absolutely RNA kit. 100 ng of total RNA was hybridized to Affymetrix Gene 1.0 ST Arrays (DFCI Microarray Core Facility). Array quality was verified before background correction, RMA normalization and log2 conversion using the Bioconductor R package affy (URL: http://www.bioconductor.org). Differential gene expression was determined using the limma Bioconductor package. Genes with a fold-change >2 and Benjamini-Hochberg-corrected p-value <0.01 were retained for further consideration. Gene expression data have been deposited in GEO (GSE45414) and can be accessed at URL: http://www.ncbi.nlm.nih.gov/geo/query/acc.cgi?acc=GSE45414.
# Consistent with the enrichment of E2F targets among EWS-FLI1-induced genes we noted in the shRNA study above (Figure 3A), we also found down-regulation of this class of signatures in A673 cells treated with low-dose actinomycin D (Figure 3B, black circles).
# [3] = test system: Cado-es; assay: MTT cell viability assay; type: cell-based; settings: 44 hours
# Experimental: (§1) Cells were seeded at a density of 1.5×10^5/ml with 100 µl/well in 96 well plates and treated with actinomycin D at 158 nM, 50 nM, 15.8 nM, 5 nM, 1.58 nM, 0.5 nM and 0 (6 wells/treatment) for 44 hours. CellTiter 96 was used to assess cell viability after a 2 hr incubation at 37°C. IC50 values were calculated using Prism.
# (§2) To determine if cells driven by EWS-FLI1 are more sensitive to actinomycin D, we assessed cell growth and viability using a MTT assay after 44 hrs exposure to actinomycin D. Although all cell lines were affected by actinomycin D, the Ewing sarcoma cell lines were as a group more sensitive by comparison to other cell lines tested (Figure 5).
# [4] = test system: TC-71; assay: MTT cell viability assay; type: cell-based; settings: 44 hours
# Experimental: as §1, §2
# [5] = test system: Ovcar-3; assay: MTT cell viability assay; type: cell-based; settings: Homo sapiens, 44 hours
# Experimental: as §1, §2
# [6] = test system: Hela; assay: MTT cell viability assay; type: cell-based; settings: Homo sapiens, 44 hours
# Experimental: as §1, §2
# [7] = test system: TC-32; assay: MTT cell viability assay; type: cell-based; settings: Homo sapiens, 44 hours
# Experimental: as §1, §2
# [8] = test system: PC-3; assay: MTT cell viability assay; type: cell-based; settings: Homo sapiens, 44 hours
# Experimental: as §1, §2
# [9] = test system: Skov-3; assay: MTT cell viability assay; type: cell-based; settings: Homo sapiens, SK-OV-3, 44 hours
# Experimental: as §1, §2
# [10] = test system: A673; assay: MTT cell viability assay; type: cell-based; settings: Homo sapiens, 44 hours
# Experimental: as §1, §2
# [11] = test system: EW-8; assay: MTT cell viability assay; type: cell-based; settings: EW8, 44 hours
# Experimental: as §1, §2
# [12] = test system: NR0B1 mRNA; assay: Quantitative RT-PCR of endogenous NR0B1 mRNA in A673 cells; type: cell-based
# Experimental: Duplicate wells of A673 cells were treated overnight with different concentration of actinomycin D. RNA was extracted with absolutely mRNA purification kit from Stratagene. 0.5 µg total RNA was mixed with 1 µl iScript Reverse Transcriptase, 10 µl of 2× RT-PCR reaction mix for probes from Bio-Rad, 1 µl of NR0B1, RPS26 and TP53 probes from Life Technologies and H2O up to 20 µl total volume. RT-PCR was performed in an iCycler iQ with 50°C for 10 minutes for one cycle; 95°C, 15 seconds, 60°C 40 seconds for 40 cycles. Each RNA sample was technically duplicated, and relative abundance was calculated by the delta Ct method.
# [13] = test system: UbC promoter; assay: UbC-Renilla luciferase reporter (internal control) in A673 cells; type: cell-based; settings: Homo sapiens, 16 hours, read-out: IC50 for inhibition of UbC promoter activity
# Experimental: Ewing sarcoma A673 cells at 50% confluence in 100 mm dishes were transfected with both 5.8 µg of pGL.3b-NR0B1 and 0.2 µg of pGL.3b-Ubc-RL reporter plasmids as above. Eight hours post-transfection, cells were trypsinized and 600 ul (2×10^5) of cells were added to each well of 24 well plates. 5 µl of different concentration of compounds or DMSO control were added to each well. Each treatment was performed in triplicate. Cells were incubated for 16 hours, then cells were lysed in 100 µl of lysis buffer and 10 µl of cell lysate was used for the dual luciferase assay. Renilla luciferase activity was used as an internal control for normalization of nonspecific transcriptional inhibition or cytotoxic effects. Experiments were repeated three times. IC50 values were calculated using Prism (Graphpad).
# To determine the effect of compounds on EWS-FLI1 activity in cells, we used a reporter assay comprised of the NR0B1 promoter, a prototypical EWS-FLI1-regulated gene, driving expression of firefly luciferase. Renilla luciferase driven by the Ubiquitin C promoter (UbC-RL) was used as an internal control. Confirming prior studies, the NR0B1 promoter was verified to be highly responsive to EWS-FLI1, whereas the UbC promoter activity was not subject to regulation by EWS-FLI1 (Figure S1).
smiles,measurement,setting,value
"Cc1c2oc3c(C)ccc(C(=O)N[C@@H]4C(=O)N[C@H](C(C)C)C(=O)N5CCC[C@H]5C(=O)N(C)CC(=O)N(C)[C@@H](C(C)C)C(=O)O[C@@H]4C)c3nc-2c(C(=O)N[C@@H]2C(=O)N[C@H](C(C)C)C(=O)N3CCC[C@H]3C(=O)N(C)CC(=O)N(C)[C@@H](C(C)C)C(=O)O[C@@H]2C)c(N)c1=O [Actinomycin D] (I: T[dV]P[Sar][NMeV] / II: T[dV]P[Sar][NMeV]; ester I:1-I:C, II:1-II:C; linker I:N-II:N via Actinocin(9to1))",Disruption of EWS-FLI1 binding compared with p53 binding in the parallel assays,[1]; EWS-FLI1 versus p53,greatest differential effect
same,IC50,"[1]; read-out: IC50 EWS-FLI1, disruption of recombinant EWS-FLI1 binding to DNA",45 nM
same,Expression of EWS-FLI1-induced genes (GSEA),[2],repressed to a significant degree
same,IC50,[3],7 nM
same,IC50,[4],3 nM
same,IC50,[5],> 20 nM
same,IC50,[6],> 20 nM
same,IC50,[7],1 nM
same,IC50,[8],> 20 nM
same,IC50,[9],> 20 nM
same,IC50,[10],2.5 nM
same,IC50,[11],3.5 nM
same,Expression of NR0B1 and control transcripts,"[12]; A673 cells, overnight, 50 nM",similarly attenuated
same,Expression of endogenous NR0B1 mRNA,"[12]; A673 cells, overnight, 5 -10 nM, versus control transcripts p53 and RPS26",preferentially attenuated
same,Window between preferential effect on EWS-FLI1 and global inhibition of transcription,[12]; in cells,< 10 fold
same,IC50,[13],14 nM
